{"source": "paper PMC7176092", "about": "“Development of the first in vivo GPR17 ligand through an iterative drug discovery pipeline: A novel disease-modifying strategy for multiple sclerosis” (PLoS ONE, 2020)", "key": {"CCR10": {"target": "T1, CCR10 (Homo sapiens, UniProt P46092)", "T1 sequence (P46092 1-362)": "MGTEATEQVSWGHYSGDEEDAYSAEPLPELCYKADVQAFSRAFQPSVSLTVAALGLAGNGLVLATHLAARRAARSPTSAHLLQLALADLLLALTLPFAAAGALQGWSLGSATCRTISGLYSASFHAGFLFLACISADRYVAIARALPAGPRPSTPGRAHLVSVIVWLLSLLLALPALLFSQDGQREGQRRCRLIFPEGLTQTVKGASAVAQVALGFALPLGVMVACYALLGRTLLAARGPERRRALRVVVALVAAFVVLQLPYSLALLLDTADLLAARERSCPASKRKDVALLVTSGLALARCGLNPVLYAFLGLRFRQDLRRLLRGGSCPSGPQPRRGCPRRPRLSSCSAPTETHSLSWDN", "assay": "Cellular functional assay CCR10"}, "CCR5": {"target": "CCR5 (Homo sapiens, UniProt P51681)", "sequence (P51681 whole entry)": "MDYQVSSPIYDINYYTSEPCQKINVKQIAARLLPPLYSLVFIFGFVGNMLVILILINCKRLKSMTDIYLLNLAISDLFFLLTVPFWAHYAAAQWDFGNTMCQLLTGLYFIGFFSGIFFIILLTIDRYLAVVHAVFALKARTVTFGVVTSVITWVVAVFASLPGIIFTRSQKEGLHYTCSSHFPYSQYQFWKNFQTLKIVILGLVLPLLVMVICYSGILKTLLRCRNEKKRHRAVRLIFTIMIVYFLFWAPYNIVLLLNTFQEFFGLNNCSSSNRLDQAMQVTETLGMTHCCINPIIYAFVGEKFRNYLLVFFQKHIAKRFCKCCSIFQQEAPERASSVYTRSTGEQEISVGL", "assay": "Cellular functional assay CCR5"}, "P2Y": {"system": "P2Y", "assay": "Binding assay P2Y", "set-up": "species or system human", "settings": "100 nM"}, "CX3CR1": {"target": "T2, CX3CR1 (Homo sapiens, UniProt P49238)", "T2 sequence (P49238 1-355)": "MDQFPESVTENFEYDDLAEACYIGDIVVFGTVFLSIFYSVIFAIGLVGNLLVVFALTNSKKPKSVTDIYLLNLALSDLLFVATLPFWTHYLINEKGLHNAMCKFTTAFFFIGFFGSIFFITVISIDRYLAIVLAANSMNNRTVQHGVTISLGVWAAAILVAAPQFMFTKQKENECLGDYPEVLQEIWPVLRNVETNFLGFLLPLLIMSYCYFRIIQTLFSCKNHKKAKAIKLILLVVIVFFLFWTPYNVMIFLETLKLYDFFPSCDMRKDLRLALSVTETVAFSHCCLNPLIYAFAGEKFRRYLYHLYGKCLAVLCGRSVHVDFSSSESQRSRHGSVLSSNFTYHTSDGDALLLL", "assay": "Cellular functional assay CX3CR1"}, "CCR6": {"target": "T3, CCR6 (Homo sapiens, UniProt P51684)", "T3 sequence (P51684 1-374)": "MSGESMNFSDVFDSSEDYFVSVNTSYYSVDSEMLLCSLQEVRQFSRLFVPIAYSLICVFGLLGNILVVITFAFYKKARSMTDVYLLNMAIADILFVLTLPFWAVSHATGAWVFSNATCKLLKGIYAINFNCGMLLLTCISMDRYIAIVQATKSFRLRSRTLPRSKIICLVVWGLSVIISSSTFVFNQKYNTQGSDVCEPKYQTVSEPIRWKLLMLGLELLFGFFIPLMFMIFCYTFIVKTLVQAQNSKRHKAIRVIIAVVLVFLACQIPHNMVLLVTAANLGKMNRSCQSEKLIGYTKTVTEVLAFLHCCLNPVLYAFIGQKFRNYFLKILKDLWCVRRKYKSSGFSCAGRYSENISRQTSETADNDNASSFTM", "assay": "Cellular functional assay CCR6"}, "40 human receptors": {"system": "40 human receptors", "assay": "Selectivity profile on class-A GPCRs (Eurofins Cerep)", "settings": "0.1 μM; binding and cellular assays", "text": "A subset of GPCRs with a relevant role in demyelination/remyelination was also included in this analysis."}, "CysLT1": {"target": "T4, CysLT1 (Homo sapiens, UniProt Q9Y271)", "T4 construct": "Eurofins Cerep (external service)", "T4 sequence (Q9Y271 1-337)": "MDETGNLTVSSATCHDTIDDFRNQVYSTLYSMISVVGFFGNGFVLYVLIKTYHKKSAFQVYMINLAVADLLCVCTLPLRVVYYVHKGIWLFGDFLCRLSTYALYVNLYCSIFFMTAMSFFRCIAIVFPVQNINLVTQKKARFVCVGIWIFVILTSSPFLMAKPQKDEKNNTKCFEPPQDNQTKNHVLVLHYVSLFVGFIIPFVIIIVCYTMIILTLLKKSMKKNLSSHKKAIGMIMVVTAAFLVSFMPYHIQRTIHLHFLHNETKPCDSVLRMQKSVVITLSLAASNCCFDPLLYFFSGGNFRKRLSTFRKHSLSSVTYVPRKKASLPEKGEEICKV", "assay": "Binding assay CysLT1", "settings": "100 nM"}, "AT1": {"target": "T5, AT1 (Homo sapiens, UniProt P30556)", "T5 construct": "Eurofins Cerep (external service)", "T5 sequence (P30556 1-359)": "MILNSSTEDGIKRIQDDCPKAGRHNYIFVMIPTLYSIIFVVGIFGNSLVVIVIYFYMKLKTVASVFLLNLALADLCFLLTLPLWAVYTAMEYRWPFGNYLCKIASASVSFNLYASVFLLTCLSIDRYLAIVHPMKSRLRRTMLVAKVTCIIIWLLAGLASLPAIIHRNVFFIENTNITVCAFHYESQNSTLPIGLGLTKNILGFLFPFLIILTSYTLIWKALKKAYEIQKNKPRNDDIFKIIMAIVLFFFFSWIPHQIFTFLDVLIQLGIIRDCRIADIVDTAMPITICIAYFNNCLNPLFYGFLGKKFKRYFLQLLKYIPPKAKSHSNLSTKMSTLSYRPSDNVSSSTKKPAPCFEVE", "assay": "Binding assay AT1", "settings": "100 nM"}, "[1]": {"settings": "antagonist effect, 100 nM, single replicates 1st and 2nd, 0.1 µM"}, "[2]": {"settings": "read-out: % Inhibition of control agonist response"}, "[3]": {"settings": "read-out: Agonist Response (% of Control), Mean, antagonist effect, 100 nM, mean of 2"}, "[4]": {"settings": "read-out: Agonist Response (% of Control), antagonist effect, 100 nM, single replicates 1st and 2nd"}, "[5]": {"settings": "single replicates 1 and 2, 0.1 µM"}, "[6]": {"settings": "mean of 2, read-out: % Of control specific binding, Mean"}, "[7]": {"settings": "read-out: % Inhibition of control specific binding"}, "[8]": {"settings": "single replicates 1 and 2, read-out: % Of control specific binding"}}, "note": "“And” between values parts separate entries of the source, which are not always exact repeats. Equal entries are not always repeated. Where two headings read alike, the source gives them in different places."}
{"smiles": "Cc1ccc(-c2nnc(SCC(=O)Nc3nccs3)[nH]2)cc1", "note": "[Compound 9]", "values": [{"measurement": "Agonist Response (% of Control)", "setting": "CCR10; [1]", "value": 90.0, "unit": "%"}, {"measurement": "inhibition at 0.1 µM", "setting": "CCR10; [2]", "value": -0.9, "unit": "%"}, {"measurement": "activity at 0.1 µM", "setting": "CCR10; [3]", "value": 87.7, "unit": "%"}, {"measurement": "activity at 0.1 µM", "setting": "CCR10; [4]", "value": 85.4, "unit": "%"}, {"measurement": "inhibition at 0.1 µM", "setting": "CCR5; CCR5, read-out: % Inhibition of control agonist response", "value": -1.5, "unit": "%"}, {"measurement": "activity at 0.1 µM", "setting": "CCR5; CCR5, read-out: Agonist Response (% of Control), Mean, antagonist effect, 100 nM, mean of 2", "value": 126, "unit": "%"}, {"measurement": "Agonist Response (% of Control)", "setting": "CCR5; [1]", "value": "140.8% and 112.0%"}, {"measurement": "% Inhibition of control specific binding", "setting": "P2Y", "value": -28, "unit": "%"}, {"measurement": "% Of control specific binding, Mean", "setting": "P2Y; mean of 2", "value": 128.2, "unit": "%"}, {"measurement": "% Of control specific binding", "setting": "P2Y; [5]", "value": "120.7% and 135.7%"}, {"measurement": "Agonist Response (% of Control)", "setting": "CX3CR1; [1]", "value": 105.4, "unit": "%"}, {"measurement": "inhibition at 0.1 µM", "setting": "CX3CR1; [2]", "value": 0.2, "unit": "%"}, {"measurement": "activity at 0.1 µM", "setting": "CX3CR1; [3]", "value": 107, "unit": "%"}, {"measurement": "activity at 0.1 µM", "setting": "CX3CR1; [4]", "value": 110, "unit": "%"}, {"measurement": "Agonist Response (% of Control)", "setting": "CCR6; [1]", "value": 105.9, "unit": "%"}, {"measurement": "inhibition at 0.1 µM", "setting": "CCR6; [2]", "value": -0.3, "unit": "%"}, {"measurement": "activity at 0.1 µM", "setting": "CCR6; [3]", "value": 106, "unit": "%"}, {"measurement": "activity at 0.1 µM", "setting": "CCR6; [4]", "value": 105, "unit": "%"}, {"measurement": "Pharmacological activity on the tested GPCRs", "setting": "40 human receptors", "value": "no significant pharmacological activity"}, {"measurement": "remaining activity at 0.1 µM", "setting": "CysLT1; [6]", "value": 97.6, "unit": "%"}, {"measurement": "inhibition at 0.1 µM", "setting": "CysLT1; [7]", "value": 2, "unit": "%"}, {"measurement": "% Of control specific binding", "setting": "CysLT1; [5]", "value": 105.4, "unit": "%"}, {"measurement": "remaining activity at 0.1 µM", "setting": "CysLT1; [8]", "value": 89.7, "unit": "%"}, {"measurement": "remaining activity at 0.1 µM", "setting": "AT1; [6]", "value": 110, "unit": "%"}, {"measurement": "inhibition at 0.1 µM", "setting": "AT1; [7]", "value": -10, "unit": "%"}, {"measurement": "% Of control specific binding", "setting": "AT1; [5]", "value": 108.6, "unit": "%"}, {"measurement": "remaining activity at 0.1 µM", "setting": "AT1; [8]", "value": 112, "unit": "%"}]}
